Here are results for 9 compounds from ChEMBL document CHEMBL1201862, “PubChem BioAssay data set” (2004).

The target of experiment [1] is T1, Tyrosine-protein phosphatase non-receptor type 7 (Homo sapiens, UniProt P35236).
T1 sequence (P35236 whole entry): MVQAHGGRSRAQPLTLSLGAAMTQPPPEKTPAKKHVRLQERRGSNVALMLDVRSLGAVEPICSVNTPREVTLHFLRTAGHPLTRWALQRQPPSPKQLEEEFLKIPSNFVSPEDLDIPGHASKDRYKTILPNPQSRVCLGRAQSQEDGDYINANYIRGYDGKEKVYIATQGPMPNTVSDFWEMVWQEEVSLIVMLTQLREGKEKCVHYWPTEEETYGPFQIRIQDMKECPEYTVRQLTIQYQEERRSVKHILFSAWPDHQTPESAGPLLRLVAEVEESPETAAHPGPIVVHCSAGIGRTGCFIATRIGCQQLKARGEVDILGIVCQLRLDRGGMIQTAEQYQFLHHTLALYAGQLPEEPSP
Put plainly: HePTP tyrosine phosphatase activity blockers – biochemical, absorbance, leukemia target, primary screen (AID 521). Type of experiment: functional.

Experiment [2] concerns the target Ubiquitin carboxyl-terminal hydrolase BAP1 (Homo sapiens, UniProt Q92560). Put plainly: inhibition of BAP1 ubiquitin hydrolase activity – biochemical, dose response (AID 714). Type of experiment: functional.
The target of experiment [3] is T2, Voltage-gated N-type calcium channel alpha-1B subunit/Amyloid beta A4 precursor protein-binding family A member 1 (Homo sapiens, UniProt Q00975+Q02410). Type of experiment: protein assay.
Experiment [4] is described as follows: M. tuberculosis H37Rv growth inhibitors, H37Rv strain (AID 1626). Type of experiment: functional.
Experiment [5] concerns the target Luciferin 4-monooxygenase (Photinus pyralis, UniProt P08659). The experiment can be described thus: inhibition of purified Photinus pyralis luciferase – biochemical, luminescence, dose response (AID 1891).
Experiment [6] is described as follows: Luminescence Cell-Based Dose Confirmation HTS to Identify Inhibitors of Platelet Dense Granule Release. [Related pubchem assays: 1663 (Primary HTS), 1678 (Summary of Project)]. Type of experiment: functional.
The target in experiment [7] is T2, Voltage-gated N-type calcium channel alpha-1B subunit/Amyloid beta A4 precursor protein-binding family A member 1. Type of experiment: protein assay. The source holds these as a separate data set.
The target of experiment [8] is Bifunctional protein GlmU (Mycobacterium tuberculosis, UniProt P9WMN3). The experiment can be described thus: Inhibitors of Mycobacterial Glucosamine-1-phosphate acetyl transferase (GlmU). Secondary screen. The arrangement: species or system Mycobacterium tuberculosis H37Rv.
A short description of experiment [9]: Luminescent dose response cell-based high throughput screening assay for inhibitors of the Janus kinase 2 mutant JAK2V617F. [Related pubchem assays: 1446 (Primary screen.), 1521 (Confirmation assay.), 1486 (Counter screen.)]. Type of experiment: functional.
For experiment [10], the target named is T3, Replicative DNA helicase DnaB (Mycobacterium tuberculosis, UniProt P9WMR3).
T3 sequence (P9WMR3 whole entry): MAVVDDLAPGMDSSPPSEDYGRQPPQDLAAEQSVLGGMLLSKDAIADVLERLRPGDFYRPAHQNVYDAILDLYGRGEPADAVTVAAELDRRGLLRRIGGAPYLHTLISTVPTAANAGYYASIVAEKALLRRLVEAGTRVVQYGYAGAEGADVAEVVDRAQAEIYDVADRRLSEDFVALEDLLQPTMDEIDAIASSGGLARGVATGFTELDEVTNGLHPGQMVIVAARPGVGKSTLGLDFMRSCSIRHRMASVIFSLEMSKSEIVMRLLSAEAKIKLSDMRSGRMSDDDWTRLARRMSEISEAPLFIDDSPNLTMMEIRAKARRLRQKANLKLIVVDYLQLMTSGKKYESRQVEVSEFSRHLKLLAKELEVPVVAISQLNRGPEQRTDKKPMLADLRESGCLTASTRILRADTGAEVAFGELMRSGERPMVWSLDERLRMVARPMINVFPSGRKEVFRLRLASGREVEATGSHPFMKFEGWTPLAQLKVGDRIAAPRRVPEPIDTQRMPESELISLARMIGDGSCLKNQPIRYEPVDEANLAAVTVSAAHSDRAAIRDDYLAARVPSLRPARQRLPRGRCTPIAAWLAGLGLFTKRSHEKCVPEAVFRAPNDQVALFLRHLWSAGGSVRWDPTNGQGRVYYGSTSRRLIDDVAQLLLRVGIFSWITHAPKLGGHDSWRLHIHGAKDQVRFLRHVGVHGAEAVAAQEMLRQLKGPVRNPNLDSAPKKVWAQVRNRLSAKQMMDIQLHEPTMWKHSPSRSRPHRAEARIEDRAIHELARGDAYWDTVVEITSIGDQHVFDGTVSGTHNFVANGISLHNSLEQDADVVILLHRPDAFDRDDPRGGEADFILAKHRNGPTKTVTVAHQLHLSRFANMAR
The experiment can be described thus: DnaB intein splicing inhibitors, dose response, biochemical, cell-free fluorescence (AID 449749). Type of experiment: functional.

The target in a further experiment is T4, Protein RecA (Mycobacterium tuberculosis, UniProt P9WHJ3).
T4 sequence (P9WHJ3 whole entry): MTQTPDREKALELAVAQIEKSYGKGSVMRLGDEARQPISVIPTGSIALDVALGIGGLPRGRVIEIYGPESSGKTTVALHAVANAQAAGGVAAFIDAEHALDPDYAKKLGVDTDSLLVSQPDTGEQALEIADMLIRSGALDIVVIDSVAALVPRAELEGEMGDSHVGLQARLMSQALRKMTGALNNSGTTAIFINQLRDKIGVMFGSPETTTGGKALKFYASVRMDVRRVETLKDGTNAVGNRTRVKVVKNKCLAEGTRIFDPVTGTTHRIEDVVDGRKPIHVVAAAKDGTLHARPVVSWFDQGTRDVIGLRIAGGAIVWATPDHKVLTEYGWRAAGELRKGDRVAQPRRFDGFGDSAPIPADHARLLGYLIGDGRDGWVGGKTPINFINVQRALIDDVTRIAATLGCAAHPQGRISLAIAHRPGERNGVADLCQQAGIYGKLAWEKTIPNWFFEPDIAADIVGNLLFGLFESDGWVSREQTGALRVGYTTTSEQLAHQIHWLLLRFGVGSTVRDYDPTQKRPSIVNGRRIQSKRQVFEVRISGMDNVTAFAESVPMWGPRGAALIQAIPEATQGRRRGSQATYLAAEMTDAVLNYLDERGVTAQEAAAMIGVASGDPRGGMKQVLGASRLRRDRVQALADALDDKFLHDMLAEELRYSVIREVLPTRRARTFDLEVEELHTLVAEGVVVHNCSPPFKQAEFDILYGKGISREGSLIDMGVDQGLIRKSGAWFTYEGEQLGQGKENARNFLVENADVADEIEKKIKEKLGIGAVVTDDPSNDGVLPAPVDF
The experiment can be described thus: Fluorescence Cell-Free Homogeneous Dose Retest to Identify Inhibitors of RecA-Intein Splicing Activity. [Related pubchem assays (depositor defined):AID2097, AID2223, AID489010, AID492950]. Type of experiment: functional.

For experiment [11], the target named is Sphingosine 1-phosphate receptor 2 (Homo sapiens, UniProt O95136). Put plainly: Dose Response Cell Based Assay for Agonists of the S1P2 Receptor. [Related pubchem assays: 729, 736, 843 ]. Type of experiment: functional.
The target of experiment [12] is T5, Rac GTPase-activating protein 1 (Homo sapiens, UniProt Q9H0H5).
T5 sequence (Q9H0H5 whole entry): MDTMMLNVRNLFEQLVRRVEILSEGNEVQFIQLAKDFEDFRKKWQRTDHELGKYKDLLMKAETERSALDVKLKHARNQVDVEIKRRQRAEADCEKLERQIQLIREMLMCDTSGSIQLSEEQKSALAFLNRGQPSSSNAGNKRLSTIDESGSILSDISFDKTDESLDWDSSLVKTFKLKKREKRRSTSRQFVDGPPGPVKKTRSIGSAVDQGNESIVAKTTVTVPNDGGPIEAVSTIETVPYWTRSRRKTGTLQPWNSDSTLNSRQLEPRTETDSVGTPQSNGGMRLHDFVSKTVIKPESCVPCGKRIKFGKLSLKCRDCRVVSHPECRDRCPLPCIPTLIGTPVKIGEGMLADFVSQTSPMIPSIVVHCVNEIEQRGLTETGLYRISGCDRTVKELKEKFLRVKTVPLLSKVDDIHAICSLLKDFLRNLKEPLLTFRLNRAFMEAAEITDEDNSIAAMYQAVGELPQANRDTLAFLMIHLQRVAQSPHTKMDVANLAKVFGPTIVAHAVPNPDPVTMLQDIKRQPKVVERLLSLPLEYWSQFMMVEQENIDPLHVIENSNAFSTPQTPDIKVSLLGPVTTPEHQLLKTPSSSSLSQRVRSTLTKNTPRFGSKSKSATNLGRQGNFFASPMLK
The experiment can be described thus: blockers of MgcRacGAP-driven Rac1 GTP hydrolysis – biochemical, ADP Hunter fluorescence, primary and confirmatory, confirmation (AID 624330). Type of experiment: functional.

Experiment [13] in a line: glucagon-like peptide-1 release potency in STC-1, concentration-response, half-maximal inhibitory concentration in the STC-1 line (AID 1117345). Type of experiment: functional, cell-based.
Experiment [14] is described as follows: Potency on glucagon-like peptide 1 release, dose-response in NCI-H716 cell line, half maximal inhibitory concentration (AID 1117344). Type of experiment: functional, cell-based.
Experiment [15] addresses T6, Low molecular weight phosphotyrosine protein phosphatase (Homo sapiens, UniProt P24666).
T6 sequence (P24666 whole entry): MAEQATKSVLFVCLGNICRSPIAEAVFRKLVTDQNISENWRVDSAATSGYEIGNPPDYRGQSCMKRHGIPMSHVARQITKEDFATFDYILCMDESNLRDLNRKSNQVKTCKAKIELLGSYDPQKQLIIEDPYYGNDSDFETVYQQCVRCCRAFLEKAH
Put plainly: inhibition of LMPTP-A enzymatic activity – biochemical, OMFP substrate, fluorescence intensity, set 2, dose response (AID 743307). Type of experiment: functional.

For experiment [16], the target named is T6, Low molecular weight phosphotyrosine protein phosphatase. Put plainly: inhibition of human LMPTP enzyme activity – biochemical, absorbance, pNPP substrate, LMPTP-A isoform, set 2, orthogonal assay, dose response (AID 743308). Type of experiment: functional.
The nature of experiment [17]: growth inhibition of yeast DHODH-expressing 3D7 parasites – SYBR Green, dry powder samples, dose response (AID 1159570).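 Also: parasite growth measured after 72 hours of compound exposure.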 Type of experiment: functional, cell-based.
The nature of experiment [18]: Dd2 parasite growth inhibition in erythrocytes – SYBR Green, dry powder samples, set 9, dose response (AID 1159568). Type of experiment: functional, cell-based.
The nature of experiment [19]: P. falciparum Dd2 growth inhibitors, dose response, SYBR Green, cherry-picked samples (AID 1159567). Type of experiment: functional, cell-based.
The nature of experiment [20]: Dd2 malaria parasite growth inhibition potency – SYBR Green, dry powder samples, dose response (AID 1159566).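 Also: potency for growth inhibition with lower SYBR green DNA signal.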 Type of experiment: functional, cell-based.
Experiment [21] is described as follows: Plasmodium falciparum Dd2 Sybr green parasite growth Measured in Cell-Based and Microorganism Combination System Using Plate Reader - 2153-01_Inhibitor_Dose_DryPowder_Activity_Set3. Type of experiment: functional.
A short description of experiment [22]: growth inhibition of PfATP4-mutant resistant parasites – NITD609-resistant line, SYBR Green, dry powder, dose response (AID 1159571).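 Also: parasites synchronized at ring stage by sorbitol before testing.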 Type of experiment: functional, cell-based.
In another experiment the target is Cytochrome P450 2C19 (Homo sapiens, UniProt P33261). The experiment can be described thus: qHTS Assay for Inhibitors and Substrates of Cytochrome P450 2C19. [Related pubchem assays: 410 ]. Type of experiment: ADME. Particulars: read-out: Potency.

The source made the active and inactive calls.

T2 sequence (Q00975 whole entry): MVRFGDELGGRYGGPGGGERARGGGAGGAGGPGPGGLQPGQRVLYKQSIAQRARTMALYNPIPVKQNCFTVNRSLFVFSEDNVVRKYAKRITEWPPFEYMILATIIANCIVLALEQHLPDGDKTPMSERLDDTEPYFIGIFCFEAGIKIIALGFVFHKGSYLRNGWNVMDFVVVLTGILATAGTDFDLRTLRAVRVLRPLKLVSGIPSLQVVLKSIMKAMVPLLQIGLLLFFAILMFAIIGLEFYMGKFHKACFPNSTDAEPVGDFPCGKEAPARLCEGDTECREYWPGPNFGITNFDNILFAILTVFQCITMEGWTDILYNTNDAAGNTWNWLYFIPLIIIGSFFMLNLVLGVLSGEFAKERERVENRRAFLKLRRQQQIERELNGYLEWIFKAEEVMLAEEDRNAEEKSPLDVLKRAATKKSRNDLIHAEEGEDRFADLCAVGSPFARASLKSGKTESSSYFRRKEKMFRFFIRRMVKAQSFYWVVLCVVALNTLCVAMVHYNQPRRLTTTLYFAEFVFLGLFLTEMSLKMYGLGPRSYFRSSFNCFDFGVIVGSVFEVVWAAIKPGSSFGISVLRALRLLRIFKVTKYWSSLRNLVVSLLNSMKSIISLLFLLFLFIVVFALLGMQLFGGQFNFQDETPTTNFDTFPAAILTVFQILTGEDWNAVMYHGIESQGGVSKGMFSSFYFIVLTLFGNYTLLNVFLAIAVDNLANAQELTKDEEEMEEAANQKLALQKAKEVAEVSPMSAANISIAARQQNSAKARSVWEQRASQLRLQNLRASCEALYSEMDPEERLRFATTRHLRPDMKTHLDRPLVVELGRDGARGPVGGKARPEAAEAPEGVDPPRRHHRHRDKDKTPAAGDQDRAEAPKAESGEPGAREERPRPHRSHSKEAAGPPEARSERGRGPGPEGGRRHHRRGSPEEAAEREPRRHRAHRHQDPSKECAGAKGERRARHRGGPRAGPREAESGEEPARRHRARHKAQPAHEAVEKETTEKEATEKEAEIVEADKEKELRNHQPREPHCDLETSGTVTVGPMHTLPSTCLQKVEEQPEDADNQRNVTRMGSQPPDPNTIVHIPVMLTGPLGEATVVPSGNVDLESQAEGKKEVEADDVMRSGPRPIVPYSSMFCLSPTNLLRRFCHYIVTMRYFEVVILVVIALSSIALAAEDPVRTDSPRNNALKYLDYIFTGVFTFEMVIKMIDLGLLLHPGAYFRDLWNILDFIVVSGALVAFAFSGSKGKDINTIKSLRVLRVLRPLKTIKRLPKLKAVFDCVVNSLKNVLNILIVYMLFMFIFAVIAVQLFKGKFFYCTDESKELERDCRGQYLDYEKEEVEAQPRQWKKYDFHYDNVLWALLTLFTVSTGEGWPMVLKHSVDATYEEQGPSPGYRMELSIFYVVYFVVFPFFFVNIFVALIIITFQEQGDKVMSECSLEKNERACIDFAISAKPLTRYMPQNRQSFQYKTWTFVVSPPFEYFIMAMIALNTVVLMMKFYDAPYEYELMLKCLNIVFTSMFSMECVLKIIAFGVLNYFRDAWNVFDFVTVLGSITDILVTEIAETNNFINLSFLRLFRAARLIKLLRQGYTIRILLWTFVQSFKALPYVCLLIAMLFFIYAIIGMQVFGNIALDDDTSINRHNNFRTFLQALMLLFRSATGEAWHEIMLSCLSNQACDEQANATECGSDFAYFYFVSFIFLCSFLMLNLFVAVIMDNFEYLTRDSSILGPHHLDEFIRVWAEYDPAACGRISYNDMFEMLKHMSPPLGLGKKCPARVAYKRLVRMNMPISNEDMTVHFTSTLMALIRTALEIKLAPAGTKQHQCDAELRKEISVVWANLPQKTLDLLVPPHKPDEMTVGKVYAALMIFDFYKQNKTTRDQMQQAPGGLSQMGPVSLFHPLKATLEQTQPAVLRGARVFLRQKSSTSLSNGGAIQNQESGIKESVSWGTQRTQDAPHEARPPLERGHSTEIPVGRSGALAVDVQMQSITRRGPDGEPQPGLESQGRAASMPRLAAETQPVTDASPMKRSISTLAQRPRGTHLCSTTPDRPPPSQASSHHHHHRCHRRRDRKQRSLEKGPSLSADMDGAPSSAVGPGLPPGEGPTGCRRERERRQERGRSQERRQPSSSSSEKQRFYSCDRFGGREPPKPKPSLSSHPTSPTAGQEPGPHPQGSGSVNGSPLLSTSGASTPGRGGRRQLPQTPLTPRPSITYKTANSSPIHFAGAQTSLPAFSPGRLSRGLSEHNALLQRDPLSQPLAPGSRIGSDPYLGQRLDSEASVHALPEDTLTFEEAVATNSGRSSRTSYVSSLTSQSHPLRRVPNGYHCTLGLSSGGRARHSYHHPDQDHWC
T2 sequence (Q02410 whole entry): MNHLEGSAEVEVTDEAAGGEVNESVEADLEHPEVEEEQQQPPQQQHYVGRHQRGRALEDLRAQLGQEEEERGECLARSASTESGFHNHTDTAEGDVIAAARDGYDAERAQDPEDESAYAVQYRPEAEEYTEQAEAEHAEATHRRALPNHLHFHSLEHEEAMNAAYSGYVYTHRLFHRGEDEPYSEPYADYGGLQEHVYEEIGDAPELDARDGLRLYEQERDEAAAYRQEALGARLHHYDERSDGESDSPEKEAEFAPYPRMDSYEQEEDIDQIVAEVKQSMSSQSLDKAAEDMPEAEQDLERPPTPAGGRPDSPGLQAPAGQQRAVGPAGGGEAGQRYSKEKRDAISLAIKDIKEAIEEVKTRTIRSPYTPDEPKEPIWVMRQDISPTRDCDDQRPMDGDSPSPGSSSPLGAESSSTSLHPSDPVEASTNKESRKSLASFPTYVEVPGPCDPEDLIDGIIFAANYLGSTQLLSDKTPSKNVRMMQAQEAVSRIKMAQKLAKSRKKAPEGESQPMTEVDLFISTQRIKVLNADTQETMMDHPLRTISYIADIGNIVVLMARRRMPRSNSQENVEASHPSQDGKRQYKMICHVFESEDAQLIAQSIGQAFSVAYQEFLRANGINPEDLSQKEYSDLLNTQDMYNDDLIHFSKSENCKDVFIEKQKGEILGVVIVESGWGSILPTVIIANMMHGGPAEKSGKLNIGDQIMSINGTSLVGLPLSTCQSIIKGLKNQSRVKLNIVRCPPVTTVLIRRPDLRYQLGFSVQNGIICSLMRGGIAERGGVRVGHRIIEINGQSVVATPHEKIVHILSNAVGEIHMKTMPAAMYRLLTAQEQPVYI
Chain of Cytochrome P450 2C19 (P33261 whole entry): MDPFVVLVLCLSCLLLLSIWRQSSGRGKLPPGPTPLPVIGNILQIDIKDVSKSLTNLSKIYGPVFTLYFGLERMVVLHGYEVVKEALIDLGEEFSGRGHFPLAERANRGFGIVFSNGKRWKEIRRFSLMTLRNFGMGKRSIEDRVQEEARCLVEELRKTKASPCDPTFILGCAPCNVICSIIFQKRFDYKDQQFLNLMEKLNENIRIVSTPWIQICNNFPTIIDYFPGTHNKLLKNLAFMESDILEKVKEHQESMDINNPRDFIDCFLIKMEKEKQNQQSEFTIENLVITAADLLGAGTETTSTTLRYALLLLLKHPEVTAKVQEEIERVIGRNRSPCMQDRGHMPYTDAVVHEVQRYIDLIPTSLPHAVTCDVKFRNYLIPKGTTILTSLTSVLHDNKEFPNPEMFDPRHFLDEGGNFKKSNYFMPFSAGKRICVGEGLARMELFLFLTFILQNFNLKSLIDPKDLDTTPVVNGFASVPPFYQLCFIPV
Chain of Sphingosine 1-phosphate receptor 2 (O95136 whole entry): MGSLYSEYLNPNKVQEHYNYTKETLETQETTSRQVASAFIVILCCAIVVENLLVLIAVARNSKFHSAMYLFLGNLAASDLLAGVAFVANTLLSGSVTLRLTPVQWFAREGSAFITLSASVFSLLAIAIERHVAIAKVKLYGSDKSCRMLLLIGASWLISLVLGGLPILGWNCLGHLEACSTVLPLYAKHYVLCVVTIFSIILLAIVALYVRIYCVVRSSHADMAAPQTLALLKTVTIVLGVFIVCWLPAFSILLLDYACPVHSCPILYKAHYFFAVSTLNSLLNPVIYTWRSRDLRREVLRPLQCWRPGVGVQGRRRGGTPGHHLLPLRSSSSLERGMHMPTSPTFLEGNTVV
Chain of Luciferin 4-monooxygenase (P08659 whole entry): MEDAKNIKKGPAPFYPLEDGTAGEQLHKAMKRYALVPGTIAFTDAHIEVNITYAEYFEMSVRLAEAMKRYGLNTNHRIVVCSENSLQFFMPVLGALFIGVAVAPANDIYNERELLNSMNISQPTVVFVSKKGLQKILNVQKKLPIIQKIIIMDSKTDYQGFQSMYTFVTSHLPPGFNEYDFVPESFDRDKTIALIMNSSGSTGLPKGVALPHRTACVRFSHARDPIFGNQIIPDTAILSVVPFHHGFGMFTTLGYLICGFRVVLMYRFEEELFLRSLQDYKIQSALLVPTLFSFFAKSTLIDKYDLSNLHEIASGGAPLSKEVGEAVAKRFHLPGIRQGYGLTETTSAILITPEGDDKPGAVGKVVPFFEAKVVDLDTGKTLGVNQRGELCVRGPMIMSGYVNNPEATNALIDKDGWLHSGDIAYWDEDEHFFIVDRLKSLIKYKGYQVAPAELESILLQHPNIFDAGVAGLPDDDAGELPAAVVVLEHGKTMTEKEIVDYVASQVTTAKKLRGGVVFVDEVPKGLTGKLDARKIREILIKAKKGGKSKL
Chain of Bifunctional protein GlmU (P9WMN3 whole entry): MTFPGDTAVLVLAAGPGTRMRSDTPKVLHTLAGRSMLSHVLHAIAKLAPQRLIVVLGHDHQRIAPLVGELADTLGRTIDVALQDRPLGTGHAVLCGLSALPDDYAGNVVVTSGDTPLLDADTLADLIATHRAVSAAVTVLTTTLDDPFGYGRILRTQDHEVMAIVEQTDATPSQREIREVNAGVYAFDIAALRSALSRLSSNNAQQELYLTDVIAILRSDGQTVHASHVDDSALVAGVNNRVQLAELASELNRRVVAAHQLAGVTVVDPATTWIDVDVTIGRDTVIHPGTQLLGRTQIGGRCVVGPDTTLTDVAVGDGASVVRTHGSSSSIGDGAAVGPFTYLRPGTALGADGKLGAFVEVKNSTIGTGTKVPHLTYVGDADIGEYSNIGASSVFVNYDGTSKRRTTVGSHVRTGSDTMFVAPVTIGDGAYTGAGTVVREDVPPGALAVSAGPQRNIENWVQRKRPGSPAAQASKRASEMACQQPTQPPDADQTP

For `Nc1nc(Nc2cccc3ccccc23)nc(C2CCCC2=O)n1` (centres undefined), the IC50 – broadly, the point on the concentration scale where inhibition reaches its midpoint – in [1] is listed as > 100 µM (not active).

Take `COc1ccc(C2CC(=O)N3CN(c4ccc(C)c(Cl)c4)CSC3=C2C#N)cc1OC` (centres undefined): the IC50 in [2] was > 50 µM (not active); in experiment [3], > 56.8 µM (not active); in [4], > 100 µM (active); in [7] it was > 50 µM (inactive). In addition, the EC50 in experiment [5] and in experiment [6] was > 112 µM (not active) each time.

Regarding `O=S1(=O)c2ccccc2N=NN1Cc1ccc(Cl)c(Cl)c1`, the IC50 in [8] is 38.7 µM (active).

In the case of `CC(C)(C)c1cc(NC(=O)CCl)n(-c2ccccc2)n1`, the IC50 in experiment [9] is 1.79 µM (active). In addition, the AC50 in experiment [10] is 65.1 µM (active). Besides, at Protein RecA, the EC50 (as a rule, the concentration at which the effect is half-maximal) is 13.6 µM (active).

For `CCOCCCNc1nc(S)nc2cc(OC)c(OC)cc12`, the EC50 in experiment [11] is listed as > 50 µM (not active). In addition, the IC50 in experiment [12] was 83 µM (active).

Turning to `c1ccc2ccccc2c1`, the IC50 was > 40 µM (inactive) in experiment [13] and 20.8 µM (inactive) in experiment [14].

On to `Cc1ccc(-c2cc(NCCCN3CCCCC3)c3ccccc3n2)cc1`, for which the IC50 in [15] is 1.34 µM (active); in experiment [16] it was 2.99 µM (active).

For the compound `COc1ccccc1NC(=O)Nc1ccc2c(c1)OC[C@@H](C)N(Cc1ccccc1Cl)C[C@@H](C)[C@H](OC)CN(C)C2=O`, the AC50 in [17] was 0.874 µM (active); in [18], 0.0305 µM (active); in experiment [19] it was < 0.3 µM (active); in experiment [20], 0.016 µM (active); in [21] it was 0.181 µM (active); in [22], 0.22 µM (active).

For the compound `COc1ccc(CNc2ncnc3ccc(-c4ccccc4OC)cc23)c(OC)c1`, the AC50 at Cytochrome P450 2C19 was 3.98 µM (inconclusive).
